Experimental data published in patent US20060069132A1, “Azolecarboxamide herbicides” (priority 2004, published 2006).

Assays:
[1] = tested on: pigweed; test: Test B pre-/postemergence herbicide test; assay type: in vivo, Amaranthus retroflexus; conditions: for Plant response rating, Pigweed: preemergence; for Pigweed plant response rating: postemergence, visual rating, scale 0 (no effect) to 100 (complete control)
Summary of the method: (§1)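 Flooded paddy rice and barnyardgrass were treated at the 2-leaf stage; upland plantings received compound either on sown seed or on 1- to 4-leaf seedlings. All were kept 13–15 days in a greenhouse and scored visually, 0–100, relative to untreated plants.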

[2] = tested on: velvetleaf; test: Test B pre-/postemergence herbicide test; assay type: in vivo, Abutilon theophrasti; conditions: for Plant response rating, Velvetleaf: preemergence; for Velvetleaf plant response rating: postemergence, visual rating, scale 0 (no effect) to 100 (complete control)
Summary of the method: as §1

[3] = tested on: ducksalad; test: Test B flooded paddy test; assay type: in vivo, Heteranthera limosa; conditions: 1000 g ai/ha, visual rating, scale 0 to 100 (0 no effect, 100 complete control), 13 to 15 days
Summary of the method: (§2)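 Visual control ratings, 0–100 versus untreated controls, taken after 13 to 15 days in the greenhouse. Blackgrass received a postemergence spray at the 1- to 4-leaf stage (2–18 cm); ducksalad, umbrella sedge and barnyardgrass were flooded-paddy treated at 2 leaves.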

[4] = tested on: wheat; test: Test B postemergence herbicide test; assay type: in vivo, Triticum aestivum; parameters: key to Wheat plant response rating: 0 = no effect, 100 = complete control; conditions: postemergence, visual rating, scale 0 (no effect) to 100 (complete control)
Summary of the method: (§3)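 Formulated test chemicals went onto postemergence plants measuring 2 to 18 cm, at one to four leaves. For the paddy assay, species had reached two leaves. Scoring took place 13–15 days later by eye, relative to untreated plants, using 0 for no effect up to 100 for full control.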

[5] = tested on: large crabgrass; test: Test A pre-/postemergence herbicide test; assay type: in vivo, Digitaria sanguinalis
Summary of the method: (§4)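 Plants are held in greenhouse about ten days after treatment, then compared with untreated controls and scored 0 (no effect) to 100 (complete control). Preemergence dosing is a directed soil spray on sown sandy loam; postemergence dosing is spray to runoff at 2–10 cm height.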

[6] = tested on: morningglory; test: Test B pre-/postemergence herbicide test; assay type: in vivo, Ipomoea coccinea; conditions: preemergence, 125 g ai/ha; 0 to 100 scale, 0 is no effect, 100 is complete control
Summary of the method: (§5)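 Response was scored visually 13 to 15 days after treatment against untreated greenhouse controls, 0 meaning no effect and 100 complete control. Formulations (solvent mixture plus surfactant) went onto soil after planting, onto foliage of 1- to 4-leaf plants, and onto 2-leaf plants in a flooded paddy set including rice and barnyardgrass.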

[7] = tested on: wild oat; test: Test B postemergence herbicide test; assay type: in vivo, Avena fatua; conditions: postemergence, visual rating, scale 0 (no effect) to 100 (complete control)
Summary of the method: as §3

[8] = tested on: rice; test: Test B flooded paddy test; assay type: in vivo, Oryza sativa; conditions: 1000 g ai/ha, visual rating, scale 0 to 100 (0 no effect, 100 complete control), 13 to 15 days
Summary of the method: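 After treating 2-leaf paddy plants or 2–18 cm postemergence plants (1 to 4 leaves) with formulated chemical, researchers kept them in a greenhouse for 13–15 days. Effects were judged visually versus controls: 0 indicates none, 100 total control.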

[9] = tested on: cocklebur; test: Test B pre-/postemergence herbicide test; assay type: in vivo, Xanthium strumarium; conditions: for Plant response rating, Cocklebur: preemergence; for Cocklebur plant response rating: postemergence, visual rating, scale 0 (no effect) to 100 (complete control)
Summary of the method: as §5

[10] = tested on: giant foxtail; test: Test B pre-/postemergence herbicide test; assay type: in vivo, Setaria faberi; conditions: for Plant response rating, Foxtail, Giant: preemergence; for Foxtail, Giant plant response rating: postemergence, visual rating, scale 0 (no effect) to 100 (complete control)
Summary of the method: as §1

[11] = tested on: Surinam grass; test: Test B pre-/postemergence herbicide test; assay type: in vivo, Urochloa decumbens; conditions: for Plant response rating, Surinam Grass: preemergence; for Surinam Grass plant response rating: postemergence, visual rating, scale 0 (no effect) to 100 (complete control)
Summary of the method: as §1

[12] = tested on: large crabgrass; test: Test B pre-/postemergence herbicide test; assay type: in vivo, Digitaria sanguinalis; conditions: for Plant response rating, Crabgrass, Large: preemergence; for Crabgrass, Large plant response rating: postemergence, visual rating, scale 0 (no effect) to 100 (complete control)
Summary of the method: as §1

[13] = tested on: corn; test: Test B pre-/postemergence herbicide test; assay type: in vivo, Zea mays; conditions: preemergence
Summary of the method: as §1

[14] = tested on: blackgrass; test: Test B postemergence herbicide test; assay type: in vivo, Alopecurus myosuroides; conditions: postemergence, visual rating, scale 0 (no effect) to 100 (complete control)
Summary of the method: as §2

[15] = tested on: barnyardgrass; test: Test B flooded paddy test; assay type: in vivo, Echinochloa crus-galli; conditions: 1000 g ai/ha, visual rating, scale 0 to 100 (0 no effect, 100 complete control), 13 to 15 days
Summary of the method: as §2

[16] = tested on: giant foxtail; test: Test A pre-/postemergence herbicide test; assay type: in vivo, Setaria faberi
Summary of the method: as §4

[17] = tested on: small flower umbrella sedge; test: Test B flooded paddy test; assay type: in vivo, Cyperus difformis; conditions: 1000 g ai/ha, visual rating, scale 0 to 100 (0 no effect, 100 complete control), 13 to 15 days
Summary of the method: as §2

[18] = tested on: lambsquarters; test: Test B pre-/postemergence herbicide test; assay type: in vivo, Chenopodium album; conditions: for Plant response rating, Lambsquarters: preemergence; for Lambsquarters plant response rating: postemergence, visual rating, scale 0 (no effect) to 100 (complete control)
Summary of the method: as §1

[19] = tested on: barnyardgrass; test: Test B pre-/postemergence herbicide test; assay type: in vivo, Echinochloa crus-galli; conditions: for Plant response rating, Barnyardgrass: preemergence; for Barnyardgrass plant response rating: postemergence, visual rating, scale 0 (no effect) to 100 (complete control)
Summary of the method: as §5

[20] = tested on: rice; test: Test B pre-/postemergence herbicide test; assay type: in vivo, Oryza sativa; conditions: preemergence, 125 g ai/ha; 0 to 100 scale, 0 is no effect, 100 is complete control
Summary of the method: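 Evaluation is visual, comparing treated with control plants on a scale where 0 means no effect and 100 means full control. Treatments were preemergence, or postemergence on seedlings 2–18 cm tall, and held 13–15 days in the greenhouse.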

[21] = tested on: morningglory; test: Test A pre-/postemergence herbicide test; assay type: in vivo, Ipomoea spp.
Summary of the method: as §4

[22] = tested on: velvetleaf; test: Test A pre-/postemergence herbicide test; assay type: in vivo, Abutilon theophrasti
Summary of the method: as §4

[23] = tested on: redroot pigweed; test: Test A pre-/postemergence herbicide test; assay type: in vivo, Amaranthus retroflexus
Summary of the method: as §4

[24] = tested on: barnyardgrass; test: Test A pre-/postemergence herbicide test; assay type: in vivo, Echinochloa crus-galli
Summary of the method: as §4

[25] = 500 g ai/ha, visual rating 0-100, 0 no effect, 100 complete control
[26] = 125 g ai/ha, 0 to 100 scale, 0 is no effect, 100 is complete control
[27] = Postemergence, 500 g ai/ha, 0 to 100 scale, 0 no effect, 100 complete control
[28] = Postemergence, 2000 g ai/ha, 0 to 100 scale, 0 no effect, 100 complete control
[29] = Preemergence, 500 g ai/ha, visual rating, 0 to 100 scale (0 no effect, 100 complete control)
[30] = Preemergence, 2000 g ai/ha, visual rating, 0 to 100 scale (0 no effect, 100 complete control)
[31] = preemergence, 500 g ai/ha, visual injury, 0 to 100 scale (0 no effect, 100 complete control)

CCC(C)c1cc(C(=O)Nc2cccc(C(C)=NO)c2)n(C)n1 (stereo not shown) [Compound 120]
Plant response rating, Pigweed [1, 25]: 30 | Pigweed plant response rating ([1]; 125 g ai/ha): 10 | Pigweed plant response rating ([1]; 500 g ai/ha): 70 | Plant response rating, Pigweed [1, 26]: 0 | Plant response rating, Velvetleaf [2, 25]: 40 | Velvetleaf plant response rating ([2]; 125 g ai/ha): 10 | Velvetleaf plant response rating ([2]; 500 g ai/ha): 30 | Plant response rating, Velvetleaf [2, 26]: 20 | Ducksalad plant response rating [3]: 70 | Wheat plant response rating ([4]; 125 g ai/ha): 10 | Wheat plant response rating ([4]; 500 g ai/ha): 10 | Crabgrass, Large plant response rating [5, 27]: 50 | Plant response rating, Crabgrass, Large [5, 28]: 65 | Crabgrass, Large plant response rating [5, 29]: 45 | Crabgrass, Large plant response rating [5, 30]: 75 | Plant response rating, Morningglory [6]: 10 | Oat, Wild plant response rating ([7]; 125 g ai/ha): 10 | Oat, Wild plant response rating ([7]; 500 g ai/ha): 10 | Rice plant response rating [8]: 0 | Plant response rating, Cocklebur [9, 25]: 0 | Cocklebur plant response rating ([9]; 125 g ai/ha): 30 | Cocklebur plant response rating ([9]; 500 g ai/ha): 60 | Plant response rating, Cocklebur [9, 26]: 0 | Plant response rating, Foxtail, Giant [10, 25]: 70 | Foxtail, Giant plant response rating ([10]; 125 g ai/ha): 10 | Foxtail, Giant plant response rating ([10]; 500 g ai/ha): 10 | Plant response rating, Foxtail, Giant [10, 26]: 0 | Plant response rating, Surinam Grass [11, 25]: 0 | Surinam Grass plant response rating ([11]; 125 g ai/ha): 20 | Surinam Grass plant response rating ([11]; 500 g ai/ha): 50 | Plant response rating, Surinam Grass [11, 26]: 0 | Plant response rating, Crabgrass, Large [12, 25]: 90 | Crabgrass, Large plant response rating ([12]; 125 g ai/ha): 10 | Crabgrass, Large plant response rating ([12]; 500 g ai/ha): 20 | Plant response rating, Crabgrass, Large [12, 26]: 70 | Plant response rating, Corn [13, 25]: 0 | Plant response rating, Corn [13, 26]: 0 | Blackgrass plant response rating ([14]; 125 g ai/ha): 0 | Blackgrass plant response rating ([14]; 500 g ai/ha): 10 | Barnyardgrass plant response rating [15]: 30 | Foxtail, Giant plant response rating [16, 27]: 20 | Plant response rating, Foxtail, Giant [16, 28]: 20 | Foxtail, Giant plant response rating [16, 29]: 25 | Foxtail, Giant plant response rating [16, 30]: 55 | Sedge, Umbrella plant response rating [17]: 10 | Plant response rating, Lambsquarters [18, 25]: 20 | Lambsquarters plant response rating ([18]; 125 g ai/ha): 0 | Lambsquarters plant response rating ([18]; 500 g ai/ha): 50 | Plant response rating, Lambsquarters [18, 26]: 0 | Plant response rating, Barnyardgrass [19, 25]: 90 | Barnyardgrass plant response rating ([19]; 125 g ai/ha): 10 | Barnyardgrass plant response rating ([19]; 500 g ai/ha): 10 | Plant response rating, Barnyardgrass [19, 26]: 0 | Plant response rating, Rice [20]: 0 | Morningglory plant response rating [21, 27]: 20 | Plant response rating, Morningglory [21, 28]: 40 | Morningglory plant response rating [21, 29]: 20 | Morningglory plant response rating [21, 30]: 55 | Velvetleaf plant response rating [22, 27]: 25 | Plant response rating, Velvetleaf [22, 28]: 30 | Velvetleaf plant response rating [22, 30]: 40 | Velvetleaf plant response rating [22, 31]: 20 | Pigweed plant response rating [23, 27]: 50 | Plant response rating, Pigweed [23, 28]: 85 | Pigweed plant response rating [23, 30]: 50 | Pigweed plant response rating [23, 31]: 20 | Barnyardgrass plant response rating [24, 27]: 45 | Plant response rating, Barnyardgrass [24, 28]: 65 | Barnyardgrass plant response rating [24, 29]: 30 | Barnyardgrass plant response rating [24, 30]: 85
